In ChEMBL document CHEMBL3217660, “Design, synthesis and antiproliferative activity of urocanic-chalcone hybrid derivatives” (Medchemcomm, 2011):

How the values were obtained:
HT-29 [1] = assay: Antiproliferative activity against human HT-29 cells assessed as inhibition of cell proliferation after 3 days by MTS assay; type: functional, cell-based; conditions: HT-29, 72 h
MDA-MB-231 = assay: Antiproliferative activity against human MDA-MB-231 cells assessed as inhibition of cell proliferation after 3 days by MTS assay; type: functional, cell-based; conditions: MDA-MB-231, 72 h
LNCaP = assay: Antiproliferative activity against human LNCAP cells assessed as inhibition of cell proliferation after 3 days by MTS assay; type: functional, cell-based; conditions: 72 h
[2] = Antiproliferative activity against human FEK4 cells assessed as inhibition of cell proliferation after 3 days by MTS assay; type: cell-based; conditions: FEK4, 72 h
HT-29 [3] = assay: Inhibition of human HT-29 cell proliferation; type: functional, cell-based
HCT-116 = assay: Inhibition of human HCT116 cell proliferation; type: functional, cell-based
A2780 = assay: Inhibition of human A2780 cell proliferation; type: functional, cell-based
Tubulin (Homo sapiens) = Tubulin (Homo sapiens) (UniProt P68371+Q9H4B7+P0DPH7+P68366+Q13509+Q71U36+P04350+Q3ZCM7+P07437+P68363+Q9BQE3+Q6PEY2+Q13885+Q9BVA1+Q9BUF5); assay: Induction of tubulin (unknown origin) polymerization; type: protein-complex assay
K562 = assay: Inhibition of human K562 cell proliferation; type: functional, cell-based

SMILES	IC50 (HT-29 [1])	IC50 (MDA-MB-231)	IC50 (LNCaP)	IC50 [2]	IC50 (HT-29 [3])	IC50 (HCT-116)	IC50 (A2780)	ED90 (Tubulin (Homo sapiens))	IC50 (K562)
COc1ccc(C(=O)/C=C/c2cnc[nH]2)cc1OC	37.9 µM	18.2 µM	46.2 µM	84.2 µM	–	–	–	–	–
CC1=CC[C@H](C(C)C)[C@H]2C[C@H](OC(=O)C(C)(C)C)[C@@H](O)/C=C\C[C@@H](OC(=O)/C=C/c3cn(C)cn3)C[C@@H]12	5 µM	–	–	–	5 µM	4 µM	4 µM	1.8 µM	–
COc1ccc(C(=O)/C=C/c2cccn2C)cc1OC	60.4 µM	42.8 µM	56.3 µM	162 µM	–	–	–	–	–
COc1ccc(C(=O)/C=C/c2cccn2C)cc1	61.8 µM	53.5 µM	75.5 µM	188 µM	–	–	–	–	–
COc1ccc(C(=O)/C=C/c2ccc[nH]2)cc1	> 500 µM	> 500 µM	> 500 µM	> 500 µM	–	–	–	–	–
COc1ccc(O[C@@H]2/C=C\CC(O)C[C@@H]3[C@@H](C(C)C)CC=C(C)[C@@H]3C[C@@H]2OC(=O)/C=C/c2cn(C)cn2)cc1 (single isomer, unassigned)	–	–	–	–	–	0.9 µM	1.9 µM	0.5 µM	2.3 µM
COc1cccc2c1C(=O)c1c(O)c3c(c(O)c1C2=O)C[C@@](O)(C(=O)CO)C[C@@H]3O[C@H]1C[C@H](N)[C@H](O)[C@H](C)O1 [DOXORUBICIN]	0.164 µM	0.12 µM	0.154 µM	–	–	–	–	–	–
COc1cc(C(=O)/C=C/c2cnc[nH]2)cc(OC)c1OC	19.5 µM	22.9 µM	48.1 µM	53.2 µM	–	–	–	–	–
O[C@H]1C/C=C\CC[C@@H]2C=C[C@H]1O2	–	–	–	–	–	–	–	3 µM	–
COc1cc(C(=O)/C=C/c2ncc[nH]2)cc(OC)c1OC	5 µM	4.9 µM	17.1 µM	28.6 µM	–	–	–	–	–
COc1cc(C(=O)/C=C/c2cccn2C)cc(OC)c1OC	12.5 µM	18 µM	69.5 µM	118 µM	–	–	–	–	–
COc1ccc(C(=O)/C=C/c2ccc[nH]2)cc1OC	86 µM	102 µM	105 µM	135 µM	–	–	–	–	–
COc1cc(C(=O)/C=C/c2cncn2C)cc(OC)c1OC	15.9 µM	16.9 µM	30.6 µM	49.9 µM	–	–	–	–	–
CC(=O)O[C@H]1C(=O)[C@@]2(C)[C@H]([C@H](OC(=O)c3ccccc3)[C@]3(O)C[C@H](OC(=O)[C@H](O)[C@@H](NC(=O)c4ccccc4)c4ccccc4)C(C)=C1C3(C)C)[C@]1(OC(C)=O)CO[C@@H]1C[C@@H]2O [PACLITAXEL]	< 0.005 µM	–	–	–	–	–	–	0.5 µM	–
COc1cc(C(=O)/C=C/c2nccn2C)cc(OC)c1OC	4.2 µM	4.9 µM	11 µM	17.5 µM	–	–	–	–	–
COc1cc(C(=O)/C=C/c2cn(C)cn2)cc(OC)c1OC	2.9 µM	4.8 µM	48.4 µM	85 µM	–	–	–	–	–
COc1cc(C(=O)/C=C/c2ccc[nH]2)cc(OC)c1OC	43 µM	49.9 µM	59.9 µM	156 µM	–	–	–	–	–
COc1cc(C(=O)CCc2cnc[nH]2)cc(OC)c1OC	> 500 µM	223 µM	368 µM	> 500 µM	–	–	–	–	–
Cn1cnc(/C=C/C(=O)O[C@H]2C/C=C\CC[C@@H]3C=C[C@H]2O3)c1	–	–	–	–	–	–	–	6 µM	–
